Experimental data as given in US9920012B2, “Indazole guanidine F1F0-ATPase inhibitors and therapeutic uses thereof” (Lycera Corporation, priority 2012, dated 2018).
Read-outs that look alike come from different tables or passages of the source.

What was measured:
Ramos cells = assay: Cytotoxicity in Ramos cells; format: cell-based; settings: detection limit EC50=16 μM, read-out: Ramos Cell EC50
Description: (§1) Exemplary compounds described in above Examples were tested for activity against F1F0-ATPase by measuring the ability of the compounds to inhibit ATP synthesis. In addition, the compounds were assessed for cytotoxicity in Ramos cells. Inhibition of F1F0-ATPase activity in synthesizing ATP and cytotoxicity in Ramos cells were measured according to the procedures described in K. M. Johnson et al. Chemistry & Biology 2005, 12, 485-496.

F1F0-ATPase = biological target: T1, F1F0-ATPase (Bos taurus, UniProt P13621); assay: Inhibition of F1F0-ATPase activity in synthesizing ATP; format: biochemical; settings: inhibition of ATP synthesis; detection limit IC50=16 μM; read-out: ATP Syn IC50
T1 construct: from tissue
Description: as §1

| SMILES | IC50 (F1F0-ATPase) | EC50 (Ramos cells; Homo sapiens) | EC50 (Ramos cells) |
| --- | --- | --- | --- |
| CC(C)N/C(=N/C(=O)c1ccc(F)c(F)c1)Nc1n[nH]c2cc(C(F)(F)F)ccc12 [Compound A-10] | < 5 µM | – | < 5 µM |
| CC(C)(C)CNC(=NC(=O)c1ccc2nonc2c1)Nc1n[nH]c2cc(F)ccc12 [Compound A-28] | 5 to 16 µM | > 16 µM | – |
| COC[C@H](C)N/C(=N/C(=O)c1ccc(Cl)c(F)c1)Nc1n[nH]c2cc(C(F)(F)F)ccc12 [Compound A-17] | < 5 µM | – | > 16 µM |
| COC[C@H](C)N/C(=N/C(=O)c1ccc(F)c(F)c1)Nc1n[nH]c2cc(C(F)(F)F)ccc12 [Compound A-88] | > 16 µM | – | < 5 µM |
| CC(C)(C)N/C(=N/C(=O)c1ccc(F)c(F)c1)Nc1n[nH]c2cncc(F)c12 [Compound A-32] | < 5 µM | – | 5 to 16 µM |
| COC[C@H](C)N/C(=N/C(=O)c1ccc(F)c(F)c1)Nc1n[nH]c2ccccc12 [Compound A-37] | 5 to 16 µM | – | > 16 µM |
| COC[C@H](C)N/C(=N/C(=O)c1ccc(N2CCOCC2)nc1)Nc1n[nH]c2cc(C(F)(F)F)ccc12 [Compound A-26] | 5 to 16 µM | – | > 16 µM |
| COC[C@H](C)N/C(=N/C(=O)c1ccc(F)c(F)c1)Nc1n[nH]c2cc(Cl)ccc12 [Compound 1, (S)-N-(((6-Chloro-1H-indazol-3-yl)amino)((1-methoxypropan-2-yl)amino)methylene)-3,4-difluorobenzamide] | < 5 µM | < 5 µM | – |
| CC(C)(C)N/C(=N/C(=O)c1ccc(F)c(F)c1)Nc1n[nH]c2cccc(F)c12 [Compound A-5] | < 5 µM | – | < 5 µM |
| CC(C)CN/C(=N/C(=O)c1ccc2nonc2c1)Nc1n[nH]c2cc(F)ccc12 [Compound A-29] | < 5 µM | – | > 16 µM |
| O=C(/N=C(\Nc1n[nH]c2cc(C(F)(F)F)ccc12)NC1CCCC1)c1ccc(Cl)c(F)c1 [Compound A-19] | < 5 µM | < 5 µM | – |
| CC(C)N/C(=N/C(=O)c1cccc(F)c1)Nc1n[nH]c2ccc(C(F)(F)F)cc12 [Compound A-2] | < 5 µM | – | > 16 µM |
| CCOCCCN/C(=N/C(=O)c1ccc(Cl)c(F)c1)Nc1n[nH]c2cc(C(F)(F)F)ccc12 [Compound A-15] | < 5 µM | – | < 5 µM |
| CC(C)N/C(=N/C(=O)c1ccc(Cl)c(F)c1)Nc1n[nH]c2cc(C(F)(F)F)ccc12 [Compound A-18] | < 5 µM | – | > 16 µM |
| CC(C)(C)N/C(=N/C(=O)c1ccc(F)c(F)c1)Nc1n[nH]c2ccccc12 [Compound A-34] | 5 to 16 µM | – | 5 to 16 µM |
| CCOCCN/C(=N/C(=O)c1ccc(Cl)c(F)c1)Nc1n[nH]c2cc(C(F)(F)F)ccc12 [Compound A-20] | < 5 µM | – | > 16 µM |
| CCOCCN/C(=N/C(=O)c1ccc2nonc2c1)Nc1n[nH]c2cc(F)ccc12 [Compound A-30] | > 16 µM | – | > 16 µM |
| CC(C)CN/C(=N/C(=O)c1ccc(F)c(F)c1)Nc1n[nH]c2cc(C(F)(F)F)ccc12 [Compound A-8] | < 5 µM | – | < 5 µM |
| CC(C)(C)N/C(=N/C(=O)c1ccc(F)c(F)c1)Nc1n[nH]c2cc(C(F)(F)F)ccc12 [Compound A-7] | > 16 µM | – | < 5 µM |
| O=C(/N=C(\Nc1n[nH]c2cc(C(F)(F)F)ccc12)NC1CCC1)c1ccc(N2CCOCC2)nc1 [Compound A-25] | < 5 µM | 5 to 16 µM | – |
| CC(C)CN/C(=N/C(=O)c1ccc(F)c(F)c1)Nc1n[nH]c2cc(Cl)ccc12 [Compound A-31] | < 5 µM | – | < 5 µM |
| CC(C)CN/C(=N/C(=O)c1ccc(Cl)c(F)c1)Nc1n[nH]c2cc(C(F)(F)F)ccc12 [Compound A-14] | < 5 µM | – | < 5 µM |
| CC(C)CN/C(=N/C(=O)c1ccc(N2CCOCC2)nc1)Nc1n[nH]c2cc(C(F)(F)F)ccc12 [Compound A-24] | < 5 µM | – | 5 to 16 µM |
| CC(C)CN/C(=N/C(=O)c1ccc(F)c(F)c1)Nc1n[nH]c2cncc(Cl)c12 [Compound A-41] | < 5 µM | – | < 5 µM |
| CCOCCN/C(=N/C(=O)c1ccc(F)c(F)c1)Nc1n[nH]c2cc(C(F)(F)F)ccc12 [Compound A-12] | < 5 µM | – | < 5 µM |
| CC(C)(C)CN/C(=N/C(=O)c1ccc(F)c(F)c1)Nc1n[nH]c2cncc(Cl)c12 [Compound A-42] | < 5 µM | – | 5 to 16 µM |
| CC(C)(C)CNC(=NC(=O)c1ccc(F)c(F)c1)Nc1n[nH]c2ccccc12 [Compound A-36] | < 5 µM | < 5 µM | – |
| CC(C)(C)N/C(=N/C(=O)c1ccc(Cl)c(F)c1)Nc1n[nH]c2cc(C(F)(F)F)ccc12 [Compound A-13] | < 5 µM | – | 5 to 16 µM |

Second part, led by results:

| IC50 (F1F0-ATPase) | SMILES | EC50 (Ramos cells; Homo sapiens) | EC50 (Ramos cells) |
| --- | --- | --- | --- |
| > 16 µM | COC[C@H](C)N/C(=N/C(=O)c1ccc(Cl)cc1)Nc1nn(C)c2cc(C(F)(F)F)ccc12 [Compound A-115] | > 16 µM | – |
| 5 to 16 µM | CC(C)CNC(=NC(=O)c1ccc(F)c(F)c1)Nc1n[nH]c2c(F)cccc12 [Compound A-73] | – | < 5 µM |
| 5 to 16 µM | COC[C@H](C)N/C(=N/C(=O)c1ccc(F)c(F)c1)Nc1n[nH]c2c(F)cccc12 [Compound A-74] | – | 5 to 16 µM |
| < 5 µM | CC(C)(C)N/C(=N/C(=O)c1cccc(O)c1)Nc1n[nH]c2cc(F)ccc12 [Compound A-96] | – | < 5 µM |
| < 5 µM | CCOCCNC(=NC(=O)c1ccc(F)c(F)c1)Nc1n[nH]c2ccc(C(F)(F)F)cc12 [Compound A-54] | > 16 µM | – |
| < 5 µM | O=C(/N=C(/Nc1cc(F)cc(Cl)c1)Nc1n[nH]c2ccccc12)c1ccc(Cl)cc1 [Compound A-111] | 5 to 16 µM | – |
| < 5 µM | CC(C)CN/C(=N/C(=O)c1ccc(F)c(F)c1)Nc1n[nH]c2ccc(Br)cc12 [Compound A-67] | – | < 5 µM |
| > 16 µM | CCOCCN/C(=N/C(=O)c1cccc(Cl)c1)Nc1n[nH]c2cc(F)ccc12 [Compound A-86] | – | 5 to 16 µM |
| > 16 µM | CCOCCN/C(=N/C(=O)c1ccc(F)c(F)c1)Nc1n[nH]c2c(F)cccc12 [Compound A-75] | – | > 16 µM |
| < 5 µM | CCOCCNC(=NC(=O)c1ccc(Cl)cc1)Nc1n[nH]c2cc(C(F)(F)F)ccc12 [Compound A-65] | < 5 µM | – |
| 5 to 16 µM | CC(C)(C)N/C(=N/C(=O)c1ccc(F)c(F)c1)Nc1n[nH]c2c(F)cccc12 [Compound A-72] | – | < 5 µM |
| > 16 µM | CC(C)(O)CN/C(=N/C(=O)c1ccc(O)cc1)Nc1n[nH]c2cc(F)ccc12 [Compound A-90] | – | > 16 µM |
| 5 to 16 µM | CC(C)CNC(=NC(=O)c1ccc(F)c(F)c1)Nc1n[nH]c2c(C(F)(F)F)cccc12 [Compound A-58] | 5 to 16 µM | – |
| < 5 µM | COC[C@H](C)NC(=NC(=O)c1ccc(F)c(F)c1)Nc1n[nH]c2cc(Cl)c(F)cc12 [Compound A-103] | – | < 5 µM |
| < 5 µM | CC(C)(C)CN/C(=N/C(=O)c1ccc(F)c(F)c1)Nc1n[nH]c2ccc(C(F)(F)F)cc12 [Compound A-52] | – | < 5 µM |
| < 5 µM | CCOCCN/C(=N/C(=O)c1ccc(F)c(F)c1)Nc1n[nH]c2cc(F)ccc12 [Compound A-81] | – | < 5 µM |
| < 5 µM | CCOCCNC(=NC(=O)c1cccc(Cl)c1)Nc1n[nH]c2cc(Cl)c(F)cc12 [Compound A-106] | < 5 µM | – |

| IC50 (F1F0-ATPase) | SMILES | EC50 (Ramos cells; Homo sapiens) | EC50 (Ramos cells) |
| --- | --- | --- | --- |
| < 5 µM | CCOCCN/C(=N/C(=O)c1ccc(Cl)cc1)Nc1n[nH]c2cc(F)ccc12 [Compound A-82] | – | < 5 µM |
| < 5 µM | CCOCCN/C(=N/C(=O)c1ccc(F)c(F)c1)Nc1n[nH]c2cc(Cl)ccc12 [Compound A-61] | – | < 5 µM |
| > 16 µM | CC(C)(O)CN/C(=N/C(=O)c1cccc(Cl)c1)Nc1n[nH]c2cc(F)ccc12 [Compound A-87] | – | > 16 µM |
| < 5 µM | COC[C@H](C)N/C(=N/C(=O)c1ccc(Cl)cc1)Nc1n[nH]c2cc(F)ccc12 [Compound A-80] | – | < 5 µM |
| > 16 µM | CC(C)CN/C(=N/C(=O)c1ccc(F)c(F)c1)Nc1n[nH]c2cccnc12 [Compound A-46] | – | > 16 µM |
| > 16 µM | CC(C)(C)N/C(=N/C(=O)c1ccc(F)c(F)c1)Nc1n[nH]c2ncccc12 [Compound A-69] | – | > 16 µM |
| > 16 µM | CC1(CNC(=NC(=O)c2ccc(F)c(F)c2)Nc2n[nH]c3ccc(C(F)(F)F)cc23)COC1 [Compound A-55] | > 16 µM | – |
| < 5 µM | CC(C)(O)CN/C(=N/C(=O)c1ccc(F)c(F)c1)Nc1n[nH]c2cc(F)ccc12 [Compound A-83] | – | < 5 µM |
| 5 to 16 µM | COC[C@H](C)N/C(=N/C(=O)c1ccc(O)cc1)Nc1n[nH]c2cc(F)ccc12 [Compound A-89] | – | 5 to 16 µM |
| < 5 µM | CC(C)CN/C(=N/C(=O)c1ccc(F)c(F)c1)Nc1n[nH]c2cc(Br)ccc12 [Compound A-68] | – | < 5 µM |
| > 16 µM | CC(C)(C)CNC(=NC(=O)c1ccc(F)c(F)c1)Nc1n[nH]c2cccnc12 [Compound A-47] | > 16 µM | – |
| 5 to 16 µM | CCOCCNC(=NC(=O)c1ccc(F)c(F)c1)Nc1n[nH]c2c(C(F)(F)F)cccc12 [Compound A-60] | > 16 µM | – |
| < 5 µM | CC(C)CNC(=NC(=O)c1ccc(O)cc1)Nc1n[nH]c2cc(Cl)ccc12 [Compound A-108] | – | 5 to 16 µM |
| < 5 µM | CC(C)CN/C(=N/C(=O)c1cccc(O)c1)Nc1n[nH]c2cc(F)ccc12 [Compound A-95] | – | 5 to 16 µM |
| 5 to 16 µM | CC(C)(C)N/C(=N/C(=O)c1ccc(F)c(F)c1)Nc1n[nH]c2cccnc12 [Compound A-45] | – | > 16 µM |
| > 16 µM | COCC(C)NC(=NC(=O)c1ccc(F)c(F)c1)Nc1n[nH]c2c(C(F)(F)F)cccc12 (centres unmarked) [Compound A-59] | > 16 µM | – |
